# Reference: ChEMBL document CHEMBL4483862, “Open-source discovery of chemical leads for next-generation chemoprotective antimalarials” (2018)
# Test system: Plasmodium berghei
# Assay: Luciferase/luciferin-expressing antifolate-resistant parasites were used to infect a culture of HepG2 cells that were pre-incubated with compounds. Infected hepatocytes emit light due to the luciferase reaction. Assay results are presented as the percent inhibition of light emission compared to control. […]
# Format: functional
# Conditions: sporozoite; for IC90: read-out: LUCIFERASE INFECTION ASSAY - IC90
SMILES,IC90,other results
CC(=O)c1ccc(-c2ccc(C(=O)Nc3nc(-c4ccccn4)cs3)o2)cc1,7.29 µM,"IC50 (HEPG2TOX_HILL_SLOPE 2.67, HEPG2TOX_R_SQUARED 0.908, PBLUC_HILL_SLOPE 30.3, PBLUC_R_SQUARED 0.327, read-out: LUCIFERASE INFECTION ASSAY - IC50): 6.78 µM"
COc1cc(-c2cnc3cnc(-c4ccc(N)nc4)cn23)ccc1O,4.1 µM,"IC50 (HEPG2TOX_HILL_SLOPE 2.67, HEPG2TOX_R_SQUARED 0.695, PBLUC_HILL_SLOPE 3.91, PBLUC_R_SQUARED 0.793, read-out: LUCIFERASE INFECTION ASSAY - IC50): 2.33 µM"
COc1cc(-c2cn3c(-c4ccc5ncccc5c4)cnc3cn2)cc(OC)c1OC,7.92 µM,"IC50 (HEPG2TOX_HILL_SLOPE 2.69, HEPG2TOX_R_SQUARED 0.906, PBLUC_HILL_SLOPE 2.74, PBLUC_R_SQUARED 0.535, read-out: LUCIFERASE INFECTION ASSAY - IC50): 3.55 µM"
O=C(/C(=N/Nc1ccc([N+](=O)[O-])cc1)C(=O)C(F)(F)F)c1cccs1,1 µM,"IC50 (HEPG2TOX_HILL_SLOPE 2.64, HEPG2TOX_R_SQUARED 0.853, PBLUC_HILL_SLOPE 14.9, PBLUC_R_SQUARED 0.662, read-out: LUCIFERASE INFECTION ASSAY - IC50): 0.866 µM"
Cc1nc(-c2ccc(C(C)Nc3cnn(-c4ccccc4)c(=O)c3Cl)cc2)cs1 (stereo not given),5.07 µM,"IC50 (HEPG2TOX_HILL_SLOPE 2.7, HEPG2TOX_R_SQUARED 0.839, PBLUC_HILL_SLOPE 8.17, PBLUC_R_SQUARED 0.802, read-out: LUCIFERASE INFECTION ASSAY - IC50): 3.88 µM"
COc1ccc(-c2cnc3cnc(-c4cccc(F)c4)cn23)cc1,7.12 µM,"IC50 (HEPG2TOX_HILL_SLOPE 2.64, HEPG2TOX_R_SQUARED 0.99, PBLUC_HILL_SLOPE 1.99, PBLUC_R_SQUARED 0.779, read-out: LUCIFERASE INFECTION ASSAY - IC50): 2.36 µM"
CCNC(=O)NC(=O)C(Sc1nncn1-c1ccccc1OC)c1ccccc1 (stereo not given),9.43 µM,"IC50 (HEPG2TOX_HILL_SLOPE 2.69, HEPG2TOX_R_SQUARED 0.767, PBLUC_HILL_SLOPE 3.33, PBLUC_R_SQUARED 0.658, read-out: LUCIFERASE INFECTION ASSAY - IC50): 4.87 µM"
Cc1ccc2nc(NC(=O)c3cc(F)ccc3C)c(C(=O)NCC(C)C)n2c1,3.84 µM,"IC50 (HEPG2TOX_HILL_SLOPE 2.69, HEPG2TOX_R_SQUARED 0.883, PBLUC_HILL_SLOPE 9.75, PBLUC_R_SQUARED 0.136, read-out: LUCIFERASE INFECTION ASSAY - IC50): 3.07 µM"
NC(=O)c1ccc(-c2ccnc3n[nH]c(-c4cccc(F)c4)c23)cc1,3.73 µM,"IC50 (HEPG2TOX_HILL_SLOPE 2.67, HEPG2TOX_R_SQUARED 0.872, PBLUC_HILL_SLOPE 9.91, PBLUC_R_SQUARED 0.595, read-out: LUCIFERASE INFECTION ASSAY - IC50): 2.99 µM"
COc1ccc(C(C)C)cc1-c1cnc(N)c(-c2ccc(O)cc2)c1,3.69 µM,"IC50 (HEPG2TOX_HILL_SLOPE 2.7, HEPG2TOX_R_SQUARED 0.932, PBLUC_HILL_SLOPE 18.7, PBLUC_R_SQUARED 0.395, read-out: LUCIFERASE INFECTION ASSAY - IC50): 3.28 µM"
O=C(NNC(=S)Nc1cccc(C(F)(F)F)c1)c1[nH]c2ccccc2c1-c1ccccc1,2.73 µM,"IC50 (HEPG2TOX_HILL_SLOPE 2.69, HEPG2TOX_R_SQUARED 0.963, PBLUC_HILL_SLOPE 11.7, PBLUC_R_SQUARED 0.673, read-out: LUCIFERASE INFECTION ASSAY - IC50): 2.27 µM"
Cc1nc(SCc2cccc(S(=O)(=O)N(C)C)c2)c2ccccc2n1,> 10 µM,"IC50 (HEPG2TOX_HILL_SLOPE 2.7, HEPG2TOX_R_SQUARED 0.556, read-out: LUCIFERASE INFECTION ASSAY - IC50): > 10 µM"
C[C@H]1O[C@@H](O[C@H]2[C@@H](O)C[C@H](O[C@H]3[C@@H](O)C[C@H](O[C@H]4CC[C@]5(C)C6CC[C@]7(C)[C@@H](C8=CC(=O)OC8)CC[C@]7(O)C6CC[C@@H]5C4)O[C@@H]3C)O[C@@H]2C)C[C@H](O)[C@H]1O (stereo not given in full),3.31 µM,"IC50 (HEPG2TOX_HILL_SLOPE 2.7, HEPG2TOX_R_SQUARED 0.866, PBLUC_HILL_SLOPE 1.79, PBLUC_R_SQUARED 0.476, read-out: LUCIFERASE INFECTION ASSAY - IC50): 0.969 µM"
Cc1ccc(N2CC(C(=O)Nc3cc(C4CC4)n[nH]3)CC2=O)cc1 (stereo not given),2.23 µM,"IC50 (HEPG2TOX_HILL_SLOPE 2.65, HEPG2TOX_R_SQUARED 0.943, PBLUC_HILL_SLOPE 2.62, PBLUC_R_SQUARED 0.892, read-out: LUCIFERASE INFECTION ASSAY - IC50): 0.963 µM"
COc1cc2c(cc1OC)CN(CCNc1ncnc3sccc13)CC2,> 10 µM,"IC50 (HEPG2TOX_HILL_SLOPE 2.69, HEPG2TOX_R_SQUARED 0.552, PBLUC_HILL_SLOPE 1.83, PBLUC_R_SQUARED 0.419, read-out: LUCIFERASE INFECTION ASSAY - IC50): 3.93 µM"
CCCN(CCC)c1ccc(/C=C2\C=c3c(O)cccc3=C2O)cc1,3.37 µM,"IC50 (HEPG2TOX_HILL_SLOPE 2.7, HEPG2TOX_R_SQUARED 0.839, PBLUC_HILL_SLOPE 2.95, PBLUC_R_SQUARED 0.682, read-out: LUCIFERASE INFECTION ASSAY - IC50): 1.6 µM"
Clc1cccc(-c2ccnc3n[nH]c(-c4cccnc4)c23)c1,4.14 µM,"IC50 (HEPG2TOX_HILL_SLOPE 2.64, HEPG2TOX_R_SQUARED 0.942, PBLUC_HILL_SLOPE 10.9, PBLUC_R_SQUARED 0.513, read-out: LUCIFERASE INFECTION ASSAY - IC50): 3.39 µM"
CO/N=C(/CS(=O)(=O)c1ccc(OC)cc1)c1ccc(Cl)cc1,> 9.33 µM,"IC50 (HEPG2TOX_HILL_SLOPE 2.67, HEPG2TOX_R_SQUARED 0.896, PBLUC_HILL_SLOPE 4.33, PBLUC_R_SQUARED 0.342, read-out: LUCIFERASE INFECTION ASSAY - IC50): 6.46 µM"
CC(=O)OC1CCC2(C)C3CCC4(C)C(C5=CC(=O)OC5)CCC4(O)C3CCC2(O)C1 (stereo not given),> 7.63 µM,"IC50 (HEPG2TOX_HILL_SLOPE 2.67, HEPG2TOX_R_SQUARED 0.733, PBLUC_HILL_SLOPE 2.15, PBLUC_R_SQUARED 0.208, read-out: LUCIFERASE INFECTION ASSAY - IC50): 3 µM"
CC(=O)c1cccc(-c2cnc3c(Nc4cccc(OC(F)(F)C(F)F)c4)nccn23)c1,6 µM,"IC50 (HEPG2TOX_HILL_SLOPE 2.66, HEPG2TOX_R_SQUARED 0.947, PBLUC_HILL_SLOPE 1.76, PBLUC_R_SQUARED 0.616, read-out: LUCIFERASE INFECTION ASSAY - IC50): 1.72 µM"
CCOC(=O)/C=C/c1ccc(NC(=O)C2CCCN2c2ncnc3ccccc23)cc1 (stereo not given),> 10 µM,"IC50 (HEPG2TOX_HILL_SLOPE 2.7, HEPG2TOX_R_SQUARED 0.523, PBLUC_HILL_SLOPE 3.32, PBLUC_R_SQUARED 0.679, read-out: LUCIFERASE INFECTION ASSAY - IC50): 6.13 µM"
COc1cc(C(=O)Nc2ccc(-c3csc(N4CCOCC4)n3)cc2)cc(Cl)c1OC,> 10 µM,"IC50 (HEPG2TOX_HILL_SLOPE 2.64, HEPG2TOX_R_SQUARED 0.944, PBLUC_HILL_SLOPE 1.81, PBLUC_R_SQUARED 0.542, read-out: LUCIFERASE INFECTION ASSAY - IC50): 3.98 µM"
O=C(c1c(-c2ccccc2)c2c3n(c(CN(C(=O)C4CC4)c4ccccc4)nn13)CCCC2)C1CC1,> 10 µM,"IC50 (HEPG2TOX_HILL_SLOPE 2.64, HEPG2TOX_R_SQUARED 0.879, read-out: LUCIFERASE INFECTION ASSAY - IC50): > 10 µM"
Cc1ccccc1N1CCN(Cc2csc(-c3ccccc3Cl)n2)CC1,3.67 µM,"IC50 (HEPG2TOX_HILL_SLOPE 2.7, HEPG2TOX_R_SQUARED 0.815, PBLUC_HILL_SLOPE 21.2, PBLUC_R_SQUARED 0.497, read-out: LUCIFERASE INFECTION ASSAY - IC50): 3.3 µM"
COc1ccc(/C=C2\C(=O)/C(=C/c3ccc(OC)c(O)c3)c3ccccc32)cc1O,3.46 µM,"IC50 (HEPG2TOX_HILL_SLOPE 2.67, HEPG2TOX_R_SQUARED 0.974, PBLUC_HILL_SLOPE 3.5, PBLUC_R_SQUARED 0.766, read-out: LUCIFERASE INFECTION ASSAY - IC50): 1.85 µM"
COc1ccccc1-c1ccnc2n[nH]c(-c3cc(OC)c(OC)c(OC)c3)c12,3.93 µM,"IC50 (HEPG2TOX_HILL_SLOPE 2.69, HEPG2TOX_R_SQUARED 0.93, PBLUC_HILL_SLOPE 7.13, PBLUC_R_SQUARED 0.294, read-out: LUCIFERASE INFECTION ASSAY - IC50): 2.89 µM"
CC(C)c1ccc(C(Nc2ccc3nnnn3n2)c2cccs2)cc1 (stereo not given),5.57 µM,"IC50 (HEPG2TOX_HILL_SLOPE 2.7, HEPG2TOX_R_SQUARED 0.805, PBLUC_HILL_SLOPE 2.3, PBLUC_R_SQUARED 0.604, read-out: LUCIFERASE INFECTION ASSAY - IC50): 2.14 µM"
CC(=O)Nc1cccc(Nc2cc3c(cn2)ncn3CC2CC2)c1,> 10 µM,"IC50 (HEPG2TOX_HILL_SLOPE 2.64, HEPG2TOX_R_SQUARED 0.966, PBLUC_HILL_SLOPE 2.21, PBLUC_R_SQUARED 0.507, read-out: LUCIFERASE INFECTION ASSAY - IC50): 6.65 µM"
FC(F)Oc1ccc(NC(=S)NNC(=S)Nc2ccc(Cl)cc2)cc1,4.51 µM,"IC50 (HEPG2TOX_HILL_SLOPE 2.66, HEPG2TOX_R_SQUARED 0.926, PBLUC_HILL_SLOPE 1.61, PBLUC_R_SQUARED 0.703, read-out: LUCIFERASE INFECTION ASSAY - IC50): 1.16 µM"
COc1ccc(-c2cnc3ccc(NCc4ccc(S(N)(=O)=O)cc4)nn23)cn1,> 8.04 µM,"IC50 (HEPG2TOX_HILL_SLOPE 2.67, HEPG2TOX_R_SQUARED 0.289, PBLUC_HILL_SLOPE 3.8, PBLUC_R_SQUARED 0.626, read-out: LUCIFERASE INFECTION ASSAY - IC50): 4.71 µM"
